# Reference: ChEMBL document CHEMBL1201862, “PubChem BioAssay data set” (2004)
# Where “and” joins values, the source holds several entries; their conditions need not be identical. Equal entries are not always repeated. Calls of active or inactive are those of the source.
# How the values were obtained:
# [1] = HEp-2 cell cytotoxicity, dose response, cytotoxicity control for RSV inhibitor project, HTS (AID 2410); assay type: functional; settings: human respiratory syncytial virus
# [2] = target: T1, Corticotropin-releasing factor receptor 2/Corticotropin-releasing factor-binding protein (Homo sapiens, UniProt P24387+Q13324); assay: Dose Response confirmation of uHTS hits for small molecule antagonists of the CRF-binding protein and CRF-R2 receptor complex.; assay type: functional; settings: read-out: IC50_Mean
# T1 sequence (Q13324 whole entry): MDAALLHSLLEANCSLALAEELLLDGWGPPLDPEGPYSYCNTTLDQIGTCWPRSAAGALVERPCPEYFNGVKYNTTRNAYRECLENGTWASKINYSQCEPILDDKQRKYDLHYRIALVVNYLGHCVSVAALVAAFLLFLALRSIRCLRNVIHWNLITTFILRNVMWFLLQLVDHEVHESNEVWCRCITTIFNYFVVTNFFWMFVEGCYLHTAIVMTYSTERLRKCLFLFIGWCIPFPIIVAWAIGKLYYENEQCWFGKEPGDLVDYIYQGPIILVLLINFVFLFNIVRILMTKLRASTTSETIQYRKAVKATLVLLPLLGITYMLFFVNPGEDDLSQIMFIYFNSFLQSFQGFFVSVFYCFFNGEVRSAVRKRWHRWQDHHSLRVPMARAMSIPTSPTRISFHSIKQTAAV
# T1 sequence (P24387 whole entry): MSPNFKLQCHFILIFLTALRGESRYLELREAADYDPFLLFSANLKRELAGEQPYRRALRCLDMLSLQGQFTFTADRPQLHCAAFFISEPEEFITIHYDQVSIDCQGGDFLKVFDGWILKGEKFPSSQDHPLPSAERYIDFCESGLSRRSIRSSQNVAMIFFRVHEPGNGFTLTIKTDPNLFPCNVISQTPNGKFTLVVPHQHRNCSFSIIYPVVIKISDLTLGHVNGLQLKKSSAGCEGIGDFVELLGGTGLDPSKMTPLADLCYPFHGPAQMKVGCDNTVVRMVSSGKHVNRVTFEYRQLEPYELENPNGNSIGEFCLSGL
# [3] = target: T1, Corticotropin-releasing factor receptor 2/Corticotropin-releasing factor-binding protein; assay: activators of CRF receptor 2 with binding protein – uHTS hits, confirmation (AID 602473); assay type: functional; settings: read-out: EC50_Mean
# Cytochrome P450 1A2 = target: T2, Cytochrome P450 1A2 (Homo sapiens, UniProt P05177);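 also: PubChem cytochrome P450 panel assay, CYP1A2 panel member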
# T2 sequence (P05177 whole entry): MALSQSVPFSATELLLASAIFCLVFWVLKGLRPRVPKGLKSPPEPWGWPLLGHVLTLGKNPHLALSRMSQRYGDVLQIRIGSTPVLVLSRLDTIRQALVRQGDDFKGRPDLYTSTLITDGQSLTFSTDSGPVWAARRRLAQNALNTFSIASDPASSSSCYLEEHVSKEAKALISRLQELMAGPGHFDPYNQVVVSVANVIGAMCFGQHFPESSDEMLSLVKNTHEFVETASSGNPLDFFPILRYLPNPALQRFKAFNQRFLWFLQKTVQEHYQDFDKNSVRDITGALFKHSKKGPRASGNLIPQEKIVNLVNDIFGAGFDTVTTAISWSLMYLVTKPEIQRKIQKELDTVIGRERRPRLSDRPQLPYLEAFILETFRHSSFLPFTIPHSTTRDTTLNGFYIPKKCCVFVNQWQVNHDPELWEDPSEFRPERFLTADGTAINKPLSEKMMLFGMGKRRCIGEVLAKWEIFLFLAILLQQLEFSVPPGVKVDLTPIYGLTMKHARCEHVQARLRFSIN
# INS1 = assay: beta cell apoptosis inhibitors, cytokine rescue, dose response, luminescence, retest (AID 449756); assay type: functional, cell-based; settings: Rattus norvegicus;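 also: cell death triggered by IL-1 beta plus TNF-alpha plus IFN-gamma mixture; protective hits raise ATP signal compared with cytokine alone wells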
# Cytochrome P450 2D6 = Cytochrome P450 2D6 (Homo sapiens, UniProt P10635);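 also: CYP2D6 member of a cytochrome P450 panel assay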
# Sequence of Cytochrome P450 2D6 (P10635 whole entry): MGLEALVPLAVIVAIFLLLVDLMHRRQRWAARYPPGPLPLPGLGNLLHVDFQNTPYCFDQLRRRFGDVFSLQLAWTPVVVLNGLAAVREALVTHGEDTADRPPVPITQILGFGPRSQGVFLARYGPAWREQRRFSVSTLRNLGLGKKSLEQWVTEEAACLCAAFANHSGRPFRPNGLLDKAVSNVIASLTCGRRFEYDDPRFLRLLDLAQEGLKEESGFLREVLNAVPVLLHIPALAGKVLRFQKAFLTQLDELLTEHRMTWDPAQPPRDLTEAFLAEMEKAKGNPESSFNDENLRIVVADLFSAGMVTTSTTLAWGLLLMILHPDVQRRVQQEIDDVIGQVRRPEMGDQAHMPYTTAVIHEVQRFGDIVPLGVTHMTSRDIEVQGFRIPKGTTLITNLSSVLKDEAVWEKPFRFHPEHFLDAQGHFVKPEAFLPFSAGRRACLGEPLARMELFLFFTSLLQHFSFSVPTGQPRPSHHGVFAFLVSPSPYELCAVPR
# Cytochrome P450 2C19 = Cytochrome P450 2C19 (Homo sapiens, UniProt P33261); assay: Cytochrome panel assay with activity outcomes. Panel member name: p450-cyp2c19 Compounds with AC50 equal or less than 10 uM are considered active; assay type: functional
# Sequence of Cytochrome P450 2C19 (P33261 whole entry): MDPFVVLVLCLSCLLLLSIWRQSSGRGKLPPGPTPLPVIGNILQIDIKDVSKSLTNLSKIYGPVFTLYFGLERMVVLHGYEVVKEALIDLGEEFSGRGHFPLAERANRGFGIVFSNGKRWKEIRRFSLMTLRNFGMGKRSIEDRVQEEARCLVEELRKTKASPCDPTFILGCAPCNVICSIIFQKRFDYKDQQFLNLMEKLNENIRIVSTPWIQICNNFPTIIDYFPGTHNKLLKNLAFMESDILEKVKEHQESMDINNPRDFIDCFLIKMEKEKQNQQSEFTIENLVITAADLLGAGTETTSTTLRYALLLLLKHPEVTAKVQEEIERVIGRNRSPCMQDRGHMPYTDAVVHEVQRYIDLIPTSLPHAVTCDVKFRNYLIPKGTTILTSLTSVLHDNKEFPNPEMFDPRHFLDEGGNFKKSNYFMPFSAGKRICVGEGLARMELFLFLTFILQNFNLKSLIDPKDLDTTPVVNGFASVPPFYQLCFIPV
# [4] = inhibitors of intracellular T. cruzi replication, confirmation, NIH3T3 host cells, beta-gal luminescence (AID 2044); assay type: functional, cell-based;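 also: intracellular parasites grown in NIH/3T3 mouse fibroblasts as host cells; luminescent beta-galactosidase reporter signal from transgenic T. cruzi replicating inside host cells; inhibitors lower the luminescence signal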
# [5] = cytotoxicity toward NIH3T3 fibroblasts, dose response, counter-screen, cell-based, ATP luminescence, mouse fibroblasts (AID 2010); assay type: functional;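 also: cells exposed to compound for about 90 hours before reading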
# Cytochrome P450 3A4 = Cytochrome P450 3A4 (Homo sapiens, UniProt P08684);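 also: CYP3A4 tested as one member of a cytochrome P450 panel screen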
# Sequence of Cytochrome P450 3A4 (P08684 whole entry): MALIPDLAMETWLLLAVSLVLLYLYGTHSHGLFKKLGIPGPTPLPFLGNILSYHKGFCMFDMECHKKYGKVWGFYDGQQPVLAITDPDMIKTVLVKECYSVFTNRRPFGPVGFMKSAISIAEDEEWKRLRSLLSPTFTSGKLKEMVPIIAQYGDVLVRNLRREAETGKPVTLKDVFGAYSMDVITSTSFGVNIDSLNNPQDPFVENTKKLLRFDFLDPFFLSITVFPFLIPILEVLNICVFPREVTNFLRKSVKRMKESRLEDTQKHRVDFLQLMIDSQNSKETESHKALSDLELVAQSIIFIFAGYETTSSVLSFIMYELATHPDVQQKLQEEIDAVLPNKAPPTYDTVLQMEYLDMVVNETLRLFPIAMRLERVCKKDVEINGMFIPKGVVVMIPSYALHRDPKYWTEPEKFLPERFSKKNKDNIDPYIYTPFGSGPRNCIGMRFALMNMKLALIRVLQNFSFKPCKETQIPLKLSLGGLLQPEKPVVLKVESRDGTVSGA
# Cytochrome P450 2C9 = Cytochrome P450 2C9 (Homo sapiens, UniProt P11712)
# Sequence of Cytochrome P450 2C9 (P11712 whole entry): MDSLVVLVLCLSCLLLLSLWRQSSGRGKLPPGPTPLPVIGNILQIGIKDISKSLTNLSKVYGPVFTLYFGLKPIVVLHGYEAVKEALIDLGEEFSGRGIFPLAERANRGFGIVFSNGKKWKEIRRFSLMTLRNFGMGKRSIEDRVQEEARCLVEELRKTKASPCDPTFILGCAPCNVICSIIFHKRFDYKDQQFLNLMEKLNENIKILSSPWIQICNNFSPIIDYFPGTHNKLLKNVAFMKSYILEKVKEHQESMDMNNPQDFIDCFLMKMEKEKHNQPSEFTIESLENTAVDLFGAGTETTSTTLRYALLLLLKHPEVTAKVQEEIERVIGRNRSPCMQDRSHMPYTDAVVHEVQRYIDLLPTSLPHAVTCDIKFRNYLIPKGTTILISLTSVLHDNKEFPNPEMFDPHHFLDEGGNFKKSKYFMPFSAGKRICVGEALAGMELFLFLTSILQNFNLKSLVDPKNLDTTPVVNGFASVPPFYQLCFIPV
# [6] = growth suppression of PTEN-null colon cells, dose response, cell-based, HCT116 PTEN knockout (AID 1047); assay type: functional;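 also: HCT116 colon tumor cells with PTEN knocked out; cells exposed to compound for 60 hours before readout; potency for loss of cell viability measured by luminescence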
# [7] = Luminescence Cell-Based Dose Response HTS to Identify Inhibitors of 5'UTR Stem-Loop Driven Prion Protein mRNA Translation in H4 Neuroglioblastoma Cells. [Related pubchem assays: 1827 (Project Summary), 1813 (Primary HTS)]; assay type: functional
# [8] = inhibitors of SNCA 5'UTR-driven reporter translation, confirmation, H4 neuroglioma cells, luminescence (AID 1988); assay type: functional, cell-based
# [9] = inhibitors of firefly luciferase expression or activity, dose response, H4 neuroglioma cells, luminescence (AID 1990); assay type: functional, cell-based
# [10] = Shn3 3'UTR reporter inhibitors, dose response, cell-based, Clone20 osteoblasts, firefly luciferase, cherry-picked (AID 624132); assay type: functional;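 also: firefly luciferase luminescence from reporter carrying the Shn3 3'UTR in osteoblasts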
# [11] = control 3'UTR Renilla luciferase suppression, dose response, counter-screen for Shn3 inhibitor project, cell-based, Clone20-Shn3RL, cherry-picked (AID 624133); assay type: functional
smiles,measurement,setting,value
O=C(NCc1nnc(SCC(=O)N2CCCc3ccccc32)n1-c1ccccc1)c1cccc2ccccc12,CC50,[1],> 50 µM (active)
CCN(C(=O)CSc1cc(C)c2ccc(OC)cc2n1)C1CCS(=O)(=O)C1 (configuration not stated),IC50,[2],> 47.1 µM (inactive)
same,EC50,[3],> 53 µM (inactive)
Cc1onc(-c2ccccc2Cl)c1C(=O)Nc1cccc2cccnc12,CC50,[1],3.16 µM (active)
COCCn1c(=O)c(-c2cc(F)cc(F)c2)nc2cnc(N(C)C)nc21,AC50,Cytochrome P450 1A2,5.01 µM (inconclusive)
CS(=O)(=O)Nc1cccc(-c2nc(N3CCNCC3)c3ccccc3n2)c1,AC50,Cytochrome P450 1A2,20 µM (inconclusive)
Cn1cc(-c2nc3cncnc3n(Cc3ccc(F)cc3)c2=O)c2ccccc21,AC50,Cytochrome P450 1A2,1.26 µM (inconclusive)
NCOC(=O)Cc1ccc(Br)cc1,AC50,Cytochrome P450 1A2,0.2 µM (active)
O=C(C1CCC1)N1CCc2cc(S(=O)(=O)Nc3ccc4c(c3)OCCO4)ccc21,AC50,INS1,5.88 µM (active)
O=C(c1ccco1)N1CCN(c2ncnc3c2cnn3-c2ccccc2)CC1,CC50,[1],38.5 µM (active)
Cn1c(CC(=O)Nc2ccc(Cl)c(Cl)c2)nnc1SCC(=O)N1CCN(c2ccccc2)CC1,AC50,Cytochrome P450 2D6,25.1 µM (inconclusive)
same,AC50,Cytochrome P450 1A2,15.8 µM (inconclusive)
CC(=O)OC[C@H]1O[C@@H](O/N=C2/[C@H]3O[C@@H]3[C@@H](O)[C@H]3[C@H]2CCn2c(=O)n(-c4ccccc4)c(=O)n23)[C@H](OC(C)=O)[C@@H](OC(C)=O)[C@@H]1OC(C)=O,AC50,Cytochrome P450 2D6,3.16 µM (inconclusive)
same,AC50,Cytochrome P450 2C19,inconclusive
O=C1C(c2ccccn2)=[N+]([O-])c2ccccc21,AC50,Cytochrome P450 1A2,0.158 µM (active)
C/C(=C\c1ccccc1)CN1CCC(C(=O)N2CCCCC2)CC1,IC50,[2],> 47.1 µM (inactive)
same,EC50,[3],> 53 µM (inactive)
N#Cc1cnn2c(-c3cccc(C(F)(F)F)c3)ccnc12,CC50,[1],47 µM (active)
O=c1c2c3c(sc2n(CCN2CCCCC2)c(=O)n1Cc1ccco1)CCCCC3,AC50,INS1,17.9 µM (active)
same,EC50,[4],2.76 µM (active)
same,EC50,[5],> 30 µM (not active)
O=c1c2ccccc2nc2n1C(CBr)CN2 (configuration not stated),IC50,[2],> 47.1 µM (inactive)
same,EC50,[3],> 53 µM (inactive)
COc1ccccc1NC(=O)CCc1c(C)nc(O)c(C#N)c1C,AC50,Cytochrome P450 3A4,17.8 µM (inconclusive)
same,AC50,Cytochrome P450 2C19,inconclusive
same,AC50,Cytochrome P450 1A2,0.00631 µM (inconclusive)
CCC/C=C(\CCC)C(NS(=O)(=O)c1ccccc1)c1ccc(C(F)(F)F)cc1 (configuration not stated),AC50,Cytochrome P450 1A2,12.6 µM (inconclusive)
Cc1ccc(C(=O)Nc2nnc(-c3ccco3)o2)cc1C,IC50,[2],> 47.1 µM (inactive)
same,EC50,[3],> 53 µM (inactive)
CCOC(=O)c1c(C)n(C)c2ccc(OC)c(NS(=O)(=O)c3ccc(Cl)s3)c12,AC50,Cytochrome P450 3A4,1.58 µM (inconclusive)
same,AC50,Cytochrome P450 2C9,3.16 µM (inconclusive)
same,AC50,Cytochrome P450 1A2,5.62 µM (inconclusive)
Clc1ccccc1OCCCCN1CCCC1,AC50,Cytochrome P450 2C19; read-out: AC50,28.2 µM (inconclusive)
same,AC50,Cytochrome P450 1A2,15.8 µM (inconclusive)
O=C(/C=C/c1ccco1)OCc1nnc(-c2ccc(Cl)cc2)o1,IC50,[2],> 47.1 µM (inactive)
same,EC50,[3],> 53 µM (inactive)
CCOc1ccc(-c2c(=O)n(OCc3ccccn3)c3ccccc3[n+]2[O-])cc1,AC50,Cytochrome P450 3A4,12.6 µM (inconclusive)
same,AC50,Cytochrome P450 2C19; read-out: AC50,15.8 µM (inconclusive)
same,AC50,Cytochrome P450 2C9,5.62 µM (inconclusive)
same,AC50,Cytochrome P450 1A2,12.6 µM (inconclusive)
COc1cccc(Nc2ncc3nc(-c4cccs4)c(=O)n(-c4ccccc4)c3n2)c1,AC50,Cytochrome P450 3A4,20 µM (inconclusive)
same,AC50,Cytochrome P450 1A2,3.16 µM (inconclusive)
CC(C)OC(=O)/C(=C\c1ccc2c(c1)c1ccccc1n2C)NC(=O)c1ccccc1,AC50,Cytochrome P450 2C19; read-out: AC50,2.51 µM (inconclusive)
same,AC50,Cytochrome P450 2C9,6.31 µM (inconclusive)
same,AC50,Cytochrome P450 1A2,2.24 µM (inconclusive)
COc1ccc(CCNC(=O)c2c(N)n(CCN3CCOCC3)c3nc4ccccc4nc23)cc1OC,EC50,[6],94.9 µM (active)
same,EC50,[7],13.3 µM (active)
same,EC50,[8],> 120 µM (not active)
same,EC50,[9],> 120 µM (not active)
O=C(Nc1cccc(F)c1)N1CC[C@@]2(CCCN(C(=O)Oc3ccccc3)C2)C1,AC50,Cytochrome P450 2D6,20 µM (inconclusive)
same,AC50,Cytochrome P450 3A4,5.01 µM (inconclusive)
same,AC50,Cytochrome P450 1A2,15.8 µM (inconclusive)
CSc1cccc(NC(=O)C(C)C)c1,IC50,[2],> 47.1 µM (inactive)
same,EC50,[3],> 53 µM (inactive)
CCOc1ccc(C2C(C(=O)c3ccc4c(c3)OCCO4)=C(O)C(=O)N2CCCN2CCOCC2)cc1 (configuration not stated),IC50,[2],> 47.1 µM (inactive)
same,EC50,[3],> 53 µM (inactive)
CC#CCCC(=O)N1C=Cc2ccccc2C1C#N (configuration not stated),IC50,[2],> 47.1 µM (inactive)
same,EC50,[3],> 53 µM (inactive)
CSc1nnnn1-c1ccc(Cl)cc1,CC50,[1],30.7 µM (active)
CCCOc1ccccc1C1CC(=O)Nc2cc3c(cc21)OCCO3 (configuration not stated),AC50,[10],3.66 µM (active)
same,AC50,[11],10.2 µM (active)
O=C(O)c1ccccc1NS(=O)(=O)c1ccc2c(c1)OCCO2,IC50,[2],> 47.1 µM (inactive)
same,EC50,[3],> 53 µM (inactive)
O=C(Nc1ccncc1)Nc1cccc(C(F)(F)F)c1,CC50,[1],> 50 µM (active)
CC(/C=C/c1ccccc1)=N/NC(=O)CNC(=O)c1ccc2c(c1)OCO2,IC50,[2],> 47.1 µM (inactive)
same,EC50,[3],> 53 µM (inactive)
same,AC50,Cytochrome P450 2D6,0.0501 µM (inconclusive)
CCCN[C@@H]1CCc2c(OC)cccc2[C@@H]1C,AC50,Cytochrome P450 1A2,31.6 µM (inconclusive)
Cc1nc2ccccc2c(=O)n1/N=C/c1c(O)ccc2ccccc12,AC50,INS1,6.35 µM (active)
COc1ccc(/C(O)=C(\C#N)c2nc3ccccc3n2C)cc1OC,AC50,Cytochrome P450 2D6,1.58 µM (inconclusive)
same,AC50,Cytochrome P450 3A4,3.55 µM (inconclusive)
same,AC50,Cytochrome P450 2C19; read-out: AC50,39.8 µM (inconclusive)
same,AC50,Cytochrome P450 2C9,0.251 µM (inconclusive)
CN(CCc1ccc(Cl)c(Cl)c1)C[C@@H](O)COc1ccc(NS(C)(=O)=O)cc1,AC50,Cytochrome P450 3A4,15.8 µM (inconclusive)
same,AC50,Cytochrome P450 1A2,15.8 µM (inconclusive)
CN1CCN(C2=Nc3ccccc3Oc3ccc(Cl)cc32)CC1 [LOXAPINE SUCCINATE],AC50,Cytochrome P450 2D6,10 µM (inconclusive) and 31.6 µM (inconclusive)
same,AC50,Cytochrome P450 1A2,31.6 µM (inconclusive) and 3.16 µM (inconclusive)
